Read-outs that look alike come from different tables or passages of the source. Blank lines part the entries; values can stand above or below the compound they belong to.
Legend:
[1] = intrinsic dissolving rates; assay type: physicochemical; conditions: pH 1, pH 4.5 and pH 6.8; compared with valsartan
[2] = dissolving profile of film-coated tablet; assay type: physicochemical; conditions: within 15 minutes
Description: In addition, an improved dissolving profile in a tablet can be assured. In studies of the dissolving profile, it was established that the calcium salt, especially the tetrahydrate thereof, is released by 100% from a film-coated tablet within 15 minutes.
In addition, an improved dissolving profile in a tablet can be assured. In studies of the dissolving profile, it was established that the magnesium salt, especially the hexahydrate thereof, is released by 100% from a film-coated tablet within 15 minutes.

[3] = N2 atmosphere, heating rate 10 K/min
[4] = 25° C., 4 hours
[5] = open container and sealed ampoule
[6] = hygroscopicity of the material obtained; assay type: physicochemical; conditions: material as obtained
[7] = step 1, relative humidity 40% (cycle 40-90)
[8] = step 2, relative humidity 50% (cycle 40-90)
[9] = step 3, relative humidity 60% (cycle 40-90)
[10] = step 4, relative humidity 70% (cycle 40-90)
[11] = step 5, relative humidity 80% (cycle 40-90)
[12] = step 6, relative humidity 90% (cycle 40-90)
[13] = step 7, relative humidity 80% (first cycle 90-0)
[14] = step 8, relative humidity 70% (first cycle 90-0)
[15] = step 9, relative humidity 60% (first cycle 90-0)
[16] = step 10, relative humidity 50% (first cycle 90-0)
[17] = step 11, relative humidity 40% (first cycle 90-0)
[18] = step 12, relative humidity 30% (first cycle 90-0)
[19] = step 13, relative humidity 20% (first cycle 90-0)
[20] = step 14, relative humidity 10% (first cycle 90-0)
[21] = step 15, relative humidity 0% (first cycle 90-0)
[22] = step 16, relative humidity 10% (cycle 0-90)
[23] = step 17, relative humidity 20% (cycle 0-90)
[24] = step 18, relative humidity 30% (cycle 0-90)
[25] = step 19, relative humidity 40% (cycle 0-90)
[26] = step 20, relative humidity 50% (cycle 0-90)
[27] = step 21, relative humidity 60% (cycle 0-90)
[28] = step 22, relative humidity 70% (cycle 0-90)
[29] = step 23, relative humidity 80% (cycle 0-90)
[30] = step 24, relative humidity 90% (cycle 0-90)
[31] = step 25, relative humidity 0% (second cycle 90-0)
[32] = step 26, relative humidity (starting value)

- intrinsic dissolving rates [1]: improved values over those of valsartan
- release from a film-coated tablet [2]: 100%
Compound: CCCCC(=O)N(Cc1ccc(-c2ccccc2-c2nn[n-]n2)cc1)C(C(=O)[O-])C(C)C.[Ca+2] (centres unmarked) [calcium salt of valsartan]

- intrinsic dissolving rates [1]: improved values over those of valsartan
Compound: CCCCC(=O)N(Cc1ccc(-c2ccccc2-c2nn[n-]n2)cc1)C(C(=O)[O-])C(C)C.[K+].[K+] (centres unmarked) [di-potassium salt of valsartan]

Compound: CCCCC(=O)N(Cc1ccc(-c2ccccc2-c2nnn[nH]2)cc1)[C@H](C(=O)[O-])C(C)C.CCCCC(=O)N(Cc1ccc(-c2ccccc2-c2nnn[nH]2)cc1)[C@H](C(=O)[O-])C(C)C.O.O.O.O.O.O.[Mg+2] [hexahydrate of the magnesium salt of (S)-N-(1-carboxy-2-methylprop-1-yl)-N-pentanoyl-N-[2′-(1H-tetrazol-5-yl)biphenyl-4-ylmethyl]-amine]
- weight loss or water loss in % ([3]; 25° C.): 0%
- weight loss or water loss in % ([3]; 50° C.): 1.2%
- weight loss or water loss in % ([3]; 75° C.): 4.2%
- weight loss or water loss in % ([3]; 100° C.): 11.0%
- weight loss or water loss in % ([3]; 125° C.): 16.7%
- weight loss or water loss in % ([3]; 150° C.): 17.7%
- weight loss or water loss in % ([3]; 175° C.): 18.3%
- weight loss or water loss in % ([3]; 200° C.): 18.5%
- weight loss or water loss in % ([3]; 225° C.): 18.7%
- weight loss or water loss in % ([3]; 250° C.): 18.9%
- weight loss or water loss in % ([3]; 275° C.): 19.3%
- water absorption or water loss (overall finding) ([4]; range of 20 to 80% relative humidity, measurement error about 0.1%): weak, reproducible water absorption or water loss
- water absorption or loss in % [4, 7]: 0.06%
- water absorption or loss in % [4, 8]: 0.14%
- water absorption or loss in % [4, 9]: 0.19%
- water absorption or loss in % [4, 10]: 0.25%
- water absorption or loss in % [4, 11]: 0.41%
- water absorption or loss in % [4, 12]: 0.58%
- water absorption or loss in % [4, 13]: 0.32%
- water absorption or loss in % [4, 14]: 0.22%
- water absorption or loss in % [4, 15]: 0.14%
- water absorption or loss in % [4, 16]: 0.08%
- water absorption or loss in % [4, 17]: 0.16%
- water absorption or loss in % [4, 18]: −0.03%
- water absorption or loss in % [4, 19]: −0.07%
- water absorption or loss in % [4, 20]: −0.12%
- water absorption or loss in % [4, 21]: −4.3%
- water absorption or loss in % [4, 22]: −0.79%
- water absorption or loss in % [4, 23]: −0.14%
- water absorption or loss in % [4, 24]: −0.05%
- water absorption or loss in % [4, 25]: 0.02%
- water absorption or loss in % [4, 26]: 0.09%
- water absorption or loss in % [4, 27]: 0.14%
- water absorption or loss in % [4, 28]: 0.20%
- water absorption or loss in % [4, 29]: 0.28%
- water absorption or loss in % [4, 30]: 0.51%
- water absorption or loss in % [4, 31]: −3.68%
- water absorption or loss in % [4, 32]: −0.01%
- water content in stability test [5]: remains constant

Compound: (S)-N-(1-carboxy-2-methyl-prop-1-yl)-N-pentanoyl-N-[2′-(1H-tetrazol-5-yl)-biphenyl-4-ylmethyl]-amine calcium salt tetrahydrate
- weight loss or water loss in % ([3]; 25° C.): 0%
- weight loss or water loss in % ([3]; 50° C.): 0%
- weight loss or water loss in % ([3]; 75° C.): 0.5%
- weight loss or water loss in % ([3]; 100° C.): 3.5%
- weight loss or water loss in % ([3]; 125° C.): 10.2%
- weight loss or water loss in % ([3]; 150° C.): 12.4%
- weight loss or water loss in % ([3]; 175° C.): 12.8%
- weight loss or water loss in % ([3]; 200° C.): 12.9%
- weight loss or water loss in % ([3]; 225° C.): 12.9%
- weight loss or water loss in % ([3]; 250° C.): 13.0%
- weight loss or water loss in % ([3]; 275° C.): 13.2%
- water absorption or loss (overall finding) ([4]; 0 to 90% relative humidity, measurement error about 0.1%): no measurable water absorption or loss
- water absorption or loss in % [4, 7]: 0.04%
- water absorption or loss in % [4, 8]: 0.04%
- water absorption or loss in % [4, 9]: 0.03%
- water absorption or loss in % [4, 10]: 0.02%
- water absorption or loss in % [4, 11]: 0.02%
- water absorption or loss in % [4, 12]: 0.00%
- water absorption or loss in % [4, 13]: 0.02%
- water absorption or loss in % [4, 14]: 0.02%
- water absorption or loss in % [4, 15]: 0.02%
- water absorption or loss in % [4, 16]: 0.02%
- water absorption or loss in % [4, 17]: 0.02%
- water absorption or loss in % [4, 18]: 0.01%
- water absorption or loss in % [4, 19]: 0.01%
- water absorption or loss in % [4, 20]: 0.00%
- water absorption or loss in % [4, 21]: −0.01%
- water absorption or loss in % [4, 22]: 0.00%
- water absorption or loss in % [4, 23]: 0.00%
- water absorption or loss in % [4, 24]: 0.00%
- water absorption or loss in % [4, 25]: 0.00%
- water absorption or loss in % [4, 26]: 0.00%
- water absorption or loss in % [4, 27]: 0.01%
- water absorption or loss in % [4, 28]: 0.00%
- water absorption or loss in % [4, 29]: −0.01%
- water absorption or loss in % [4, 30]: −0.02%
- water absorption or loss in % [4, 31]: −0.02%
- water absorption or loss in % [4, 32]: 0.00%
- water content in stability test [5]: remains constant

Compound: (S)-N-(1-carboxy-2-methyl-prop-1-yl)-N-pentanoyl-N-[2′-(1H-tetrazol-5-yl)-biphenyl-4-ylmethyl]-amine dipotassium salt [Example 4]
- hygroscopicity [6]: hygroscopic

Compound: (S)-N-(1-carboxy-2-methyl-prop-1-yl)-N-pentanoyl-N-[2′-(1H-tetrazol-5-yl)-biphenyl-4-ylmethyl]-amine disodium salt [Example 5]
- hygroscopicity [6]: hygroscopic

- hygroscopicity [6]: slightly hygroscopic
Compound: Bis-dibutylammonium Salt of Valsartan [Example 16]

- hygroscopicity [6]: slightly hygroscopic
Compound: Hydrate of Valsartan Disodium Salt (2.4 ±1.0 Mole H2O) [Example 11]

- hygroscopicity [6]: slightly hygroscopic
Compound: Hydrate of the Valsartan Dipotassium Salt (3.4±1.0 mole H2O) [Example 12]
